{"source": "patent US20250222068A1", "about": "“COMPOSITION FOR PREVENTING OR TREATING LUPUS COMPRISING RECOMBINANT STABILIZED GALECTIN-9 PROTEIN” (GBIOLOGICS INC., priority 2022, published 2025)", "experiment": "Body weight assessment in an in vivo model of systemic lupus erythematosus", "details": "mycophenolate 60 mg/kg PO once daily, 9 weeks, MRL/FAS^lpr mice, FIG. 1", "data": [{"smiles": "COc1c(C)c2c(c(O)c1C/C=C(\\C)CCC(=O)O)C(=O)OC2", "note": "[Mycophenolate, mycophenolate]", "values": [{"measurement": "changes in body weight", "result": "no statistically significant changes in body weight"}]}]}
